In US8580802B2, “Pyrrolo[2,3-D]pyrimidines as inhibitors of Janus kinases” (Vertex Pharmaceuticals Incorporated, priority 2005, dated 2013) one finds Ki data, which are given here for 36 compounds.

One assay deals with T1, JAK3 (Homo sapiens, UniProt P52333).
T1 sequence (P52333 1-1124): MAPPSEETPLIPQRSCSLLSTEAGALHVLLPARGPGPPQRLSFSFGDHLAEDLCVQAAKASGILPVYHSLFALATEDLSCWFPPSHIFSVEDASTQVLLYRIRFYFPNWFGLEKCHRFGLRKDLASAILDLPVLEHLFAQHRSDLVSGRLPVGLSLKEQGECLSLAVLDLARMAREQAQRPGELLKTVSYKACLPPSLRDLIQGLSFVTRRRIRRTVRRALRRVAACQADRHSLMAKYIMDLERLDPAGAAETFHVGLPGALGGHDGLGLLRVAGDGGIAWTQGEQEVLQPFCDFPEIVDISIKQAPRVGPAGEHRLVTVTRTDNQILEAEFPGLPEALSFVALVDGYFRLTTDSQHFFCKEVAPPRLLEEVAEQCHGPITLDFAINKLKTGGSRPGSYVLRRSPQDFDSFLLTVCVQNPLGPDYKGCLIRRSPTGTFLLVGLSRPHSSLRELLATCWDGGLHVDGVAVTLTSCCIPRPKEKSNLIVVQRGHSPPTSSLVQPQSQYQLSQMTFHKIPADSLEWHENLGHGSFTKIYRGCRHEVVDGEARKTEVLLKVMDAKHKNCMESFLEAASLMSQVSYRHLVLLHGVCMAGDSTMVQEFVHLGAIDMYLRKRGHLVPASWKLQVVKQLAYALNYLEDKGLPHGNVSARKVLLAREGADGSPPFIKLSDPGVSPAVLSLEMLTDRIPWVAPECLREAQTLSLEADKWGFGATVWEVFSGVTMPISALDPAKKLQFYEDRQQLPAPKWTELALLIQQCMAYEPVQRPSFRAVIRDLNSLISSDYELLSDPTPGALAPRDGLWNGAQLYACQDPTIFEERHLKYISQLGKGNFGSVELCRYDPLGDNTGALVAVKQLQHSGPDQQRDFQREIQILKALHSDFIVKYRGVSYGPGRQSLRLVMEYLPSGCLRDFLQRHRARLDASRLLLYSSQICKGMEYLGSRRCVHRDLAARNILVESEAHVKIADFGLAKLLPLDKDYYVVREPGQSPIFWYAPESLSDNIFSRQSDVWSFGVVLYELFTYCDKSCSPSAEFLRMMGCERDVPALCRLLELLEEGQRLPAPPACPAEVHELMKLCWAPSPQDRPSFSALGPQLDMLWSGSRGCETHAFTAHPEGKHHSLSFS
Put plainly: JAK3 Inhibition Assay. The format is biochemical. Particulars: 1 nM JAK3, 1 μM poly(Glu)4Tyr, 5 μM ATP, 25° C.; read-out: enzyme inhibition data (Ki) JAK3. As to the method: (§1) Compounds were screened for their ability to inhibit JAK3 using the assay shown below. Reactions were carried out in a kinase buffer containing 100 mM HEPES (pH 7.4), 1 mM DTT, 10 mM MgCl2, 25 mM NaCl, and 0.01% BSA. Substrate concentrations in the assay were 5 μM ATP (200 uCi/μmole ATP) and 1 μM poly(Glu)4Tyr. Reactions were carried out 25° C. and 1 nM JAK3.
(§2) To each well of a 96 well polycarbonate plate was added 1.5 μl of a candidate JAK3 inhibitor along with 50 μl of kinase buffer containing 2 μM poly(Glu)4Tyr and 10 μM ATP. This was then mixed and 50 μl of kinase buffer containing 2 nM JAK3 enzyme was added to start the reaction. After 20 minutes at room temperature (25° C.), the reaction was stopped with 50 μl of 20% trichloroacetic acid (TCA) that also contained 0.4 mM ATP. The entire contents of each well were then transferred to a 96 well glass fiber filter plate using a TomTek Cell Harvester. After washing, 60 μl of scintillation fluid was added and ^33P incorporation detected on a Perkin Elmer TopCount.

The target in a further assay is JAK2 (Homo sapiens, UniProt O60674). Put plainly: JAK2 Inhibition Assay. The format is biochemical. Particulars: JAK-2 enzyme, 15 μM poly(Glu)4Tyr, 12 μM ATP. As to the method: as §1, §2
JAK2, sequence (O60674 whole entry): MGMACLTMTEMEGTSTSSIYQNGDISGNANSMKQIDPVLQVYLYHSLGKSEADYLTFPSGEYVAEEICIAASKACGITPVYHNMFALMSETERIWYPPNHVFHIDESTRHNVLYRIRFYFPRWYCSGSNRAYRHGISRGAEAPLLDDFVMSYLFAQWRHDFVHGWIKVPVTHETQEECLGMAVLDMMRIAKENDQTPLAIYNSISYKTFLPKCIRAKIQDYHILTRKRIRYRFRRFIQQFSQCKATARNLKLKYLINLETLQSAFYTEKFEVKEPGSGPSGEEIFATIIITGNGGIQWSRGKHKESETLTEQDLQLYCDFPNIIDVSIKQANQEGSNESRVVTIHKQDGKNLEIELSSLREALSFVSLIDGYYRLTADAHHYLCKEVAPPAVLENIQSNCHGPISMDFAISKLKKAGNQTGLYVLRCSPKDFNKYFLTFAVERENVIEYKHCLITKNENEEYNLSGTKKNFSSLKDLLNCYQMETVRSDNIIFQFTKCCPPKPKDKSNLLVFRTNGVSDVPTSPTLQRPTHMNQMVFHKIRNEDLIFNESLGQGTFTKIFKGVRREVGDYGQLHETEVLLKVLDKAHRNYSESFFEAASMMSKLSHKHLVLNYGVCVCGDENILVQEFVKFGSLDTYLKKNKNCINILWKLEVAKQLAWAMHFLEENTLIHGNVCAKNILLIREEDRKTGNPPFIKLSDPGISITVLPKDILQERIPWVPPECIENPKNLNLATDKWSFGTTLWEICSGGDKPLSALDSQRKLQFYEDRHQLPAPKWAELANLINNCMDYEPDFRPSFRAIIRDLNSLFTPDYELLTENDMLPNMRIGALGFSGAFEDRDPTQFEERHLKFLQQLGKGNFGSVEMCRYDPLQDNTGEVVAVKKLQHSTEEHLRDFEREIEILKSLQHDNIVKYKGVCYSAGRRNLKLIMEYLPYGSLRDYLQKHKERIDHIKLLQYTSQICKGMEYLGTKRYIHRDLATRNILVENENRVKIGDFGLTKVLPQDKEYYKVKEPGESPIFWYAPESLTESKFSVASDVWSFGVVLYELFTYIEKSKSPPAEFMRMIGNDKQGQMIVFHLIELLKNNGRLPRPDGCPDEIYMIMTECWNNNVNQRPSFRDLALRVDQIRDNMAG
The assays were as described above in Example 36 except that JAK-2 enzyme was used, the final poly(Glu)4Tyr concentration was 15 μM, and final ATP concentration was 12 μM.

On to `COC[C@H](Nc1nc(-c2c[nH]c3ncncc23)ncc1F)C(=O)NCC(F)(F)F` [Compound 42, (S)-2-(5-fluoro-2-(7H-pyrrolo[2,3-d]pyrimidin-5-yl)pyrimidin-4-ylamino)-N-(2,2,2-trifluoroethyl)-3-methoxypropanamide], for which the Ki at JAK3 is less than 500 nM; at JAK2 it was 500 to 5000 nM.
For `CNC(=O)C(CC(F)(F)F)Nc1nc(-c2c[nH]c3ncncc23)ncc1F` (stereo not drawn) [Compound 43, 2-(5-fluoro-2-(7H-pyrrolo[2,3-d]pyrimidin-5-yl)pyrimidin-4-ylamino)-4,4,4-trifluoro-N-methylbutanamide], the inhibition constant Ki on JAK3 and on JAK2 was 500 to 5000 nM throughout.
Consider `CCNC(=O)C(CC(F)(F)F)Nc1nc(-c2c[nH]c3ncncc23)ncc1F` (stereo not drawn) [Compound 44, 2-(5-fluoro-2-(7H-pyrrolo[2,3-d]pyrimidin-5-yl)pyrimidin-4-ylamino)-N-ethyl-4,4,4-trifluorobutanamide], for which the inhibition constant Ki at JAK3 and on JAK2 was 500 to 5000 nM each time.
`O=C(NCC(F)(F)F)C(CC(F)(F)F)Nc1nc(-c2c[nH]c3ncncc23)ncc1F` (stereo not drawn) [Compound 45, 2-(5-fluoro-2-(7H-pyrrolo[2,3-d]pyrimidin-5-yl)pyrimidin-4-ylamino)-4,4,4-trifluoro-N-(2,2,2-trifluoroethyl)butanamide]: the Ki on JAK3 and at JAK2 was less than 500 nM in each case.
Regarding `C[C@H](Nc1nc(-c2c[nH]c3ncncc23)ccc1[N+](=O)[O-])C(=O)NCC(F)(F)F` [Compound 46], the inhibition constant (Ki) at JAK3 was less than 500 nM; on JAK2 it was 500 to 5000 nM.
`COC[C@H](Nc1nc(-c2c[nH]c3ncncc23)nc2ccccc12)C(=O)NCC(F)(F)F` [Compound 47]: the Ki is 500 to 5000 nM at JAK3 and greater than 5000 nM on JAK2.
For `COC[C@H](Nc1ccnc(-c2c[nH]c3ncncc23)n1)C(=O)NCC(F)(F)F` [Compound 48, (S)-2-(2-(7H-pyrrolo[2,3-d]pyrimidin-5-yl)pyrimidin-4-ylamino)-N-(2,2,2-trifluoroethyl)-3-methoxypropanamide], the inhibition constant Ki at JAK3 is 500 to 5000 nM; at JAK2, greater than 5000 nM.
Turning to `Nc1nc(-c2c[nH]c3ncncc23)ncc1F` [Compound 49], the Ki is 500 to 5000 nM on JAK3 and greater than 5000 nM at JAK2.
The like results for `O=C(NCC(F)(F)F)[C@H](CO)Nc1nc(-c2c[nH]c3ncncc23)ncc1F` [Compound 50] were, in that order, less than 500 nM and 500 to 5000 nM.
In the case of `O=C(NCC(F)(F)F)[C@H](CO)Nc1ccnc(-c2c[nH]c3ncncc23)n1` [Compound 51], the Ki at JAK3 and on JAK2 was greater than 5000 nM throughout.
Regarding `O=C(NCC(F)(F)F)[C@@H]1C[C@H](F)CN1c1nc(-c2c[nH]c3ncncc23)ncc1F` [Compound 52], the Ki at JAK3 and at JAK2 was 500 to 5000 nM in each case.
With `O=C(NCC(F)(F)F)[C@@H]1C[C@@H](F)CN1c1nc(-c2c[nH]c3ncncc23)ncc1F` [Compound 53], the Ki is 500 to 5000 nM on JAK3 and greater than 5000 nM at JAK2.
On to `O=C(NCC(F)(F)F)[C@H]1CCCCN1c1cnc(-c2c[nH]c3ncncc23)nc1` [Compound 54], for which the inhibition constant (Ki) at JAK3 and at JAK2 was less than 500 nM throughout.
For the compound `O=C(NCC(F)(F)F)[C@@H]1CCN1c1cnc(-c2c[nH]c3ncncc23)nc1` [Compound 55], the inhibition constant Ki at JAK3 and on JAK2 was 500 to 5000 nM throughout.
As to `CC(C)(Nc1nc(-c2c[nH]c3ncncc23)ncc1F)C(=O)NCC(F)(F)F` [Compound 56, 2-(5-fluoro-2-(7H-pyrrolo[2,3-d]pyrimidin-5-yl)pyrimidin-4-ylamino)-N-(2,2,2-trifluoroethyl)-2-methylpropanamide], the inhibition constant (Ki) on JAK3 and at JAK2 was less than 500 nM in each case.
For the compound `O=C(NCC(F)(F)F)C1(Nc2nc(-c3c[nH]c4ncncc34)ncc2F)CC1` [Compound 57], the Ki at JAK3 and on JAK2 was less than 500 nM in each case.
On to `C[C@@H](Nc1nc(-c2c[nH]c3ncncc23)ncc1F)c1ccc(F)cc1` [Compound 58], for which the inhibitory constant (Ki) at JAK3 and on JAK2 was less than 500 nM each time.
On to `C[C@H](Nc1nc(-c2c[nH]c3ncncc23)ncc1F)c1ccc(F)cc1` [Compound 59], for which the inhibition constant (Ki) at JAK3 and on JAK2 was less than 500 nM in each case.
Consider `O=C(NCC(F)(F)F)C1COCCN1c1cnc(-c2c[nH]c3ncncc23)nc1` (stereo not drawn) [Compound 60], for which the Ki is less than 500 nM on JAK3 and 500 to 5000 nM at JAK2.
With `O=C(NCC(F)(F)F)[C@@H]1CCCCN1c1ccnc(-c2c[nH]c3ncncc23)n1` [Compound 61], the inhibitory constant (Ki) on JAK3 was less than 500 nM; on JAK2, 500 to 5000 nM.
`O=C(NCC(F)(F)F)C1(Nc2nc(-c3c[nH]c4ncncc34)ncc2F)CCCCC1` [Compound 62]: the Ki on JAK3 and on JAK2 was less than 500 nM in each case.
In the case of `CC(C)(Nc1ccnc(-c2c[nH]c3ncncc23)n1)C(=O)NCC(F)(F)F` [Compound 63], the Ki on JAK3 and at JAK2 was less than 500 nM each time.
As to `O=C(NCC(F)(F)F)C1(Nc2ccnc(-c3c[nH]c4ncncc34)n2)CCC1` [Compound 64], the Ki at JAK3 and on JAK2 was less than 500 nM throughout.
Take `CC(C)[C@@](C)(Nc1nc(-c2c[nH]c3ncncc23)ncc1F)C(=O)NCC(F)(F)F` [Compound 65]: the inhibitory constant (Ki) on JAK3 and on JAK2 was less than 500 nM in each case.
For the compound `CC(C)C(C(=O)NCC(F)(F)F)N(C)c1nc(-c2c[nH]c3ncncc23)ncc1F` (stereo not drawn) [Compound 66], the Ki at JAK3 and on JAK2 was less than 500 nM in each case.
In the case of `O=C(NCC(F)(F)F)C(Nc1nc(-c2c[nH]c3ncncc23)ncc1F)c1cccnc1` (stereo not drawn) [Compound 67], the inhibitory constant (Ki) at JAK3 and on JAK2 was 500 to 5000 nM in each case.
In the case of `CC(C)[C@@H](Nc1ccnc(-c2c[nH]c3ncncc23)n1)C(=O)NCC(F)(F)F` [Compound 68], the inhibitory constant (Ki) at JAK3 and at JAK2 was less than 500 nM each time.
For the compound `CC[C@@H](Nc1ccnc(-c2c[nH]c3ncncc23)n1)C(=O)NCC(F)(F)F` [Compound 69], the Ki on JAK3 and on JAK2 was less than 500 nM in each case.
On to `O=C(CNc1nc(-c2c[nH]c3ncncc23)ncc1F)NCC(F)(F)F` [Compound 70], for which the inhibition constant Ki at JAK3 is less than 500 nM; at JAK2, 500 to 5000 nM.
The like results for `O=C(CCNc1nc(-c2c[nH]c3ncncc23)ncc1F)NCC(F)(F)F` [Compound 71] were, in that order, less than 500 nM and less than 500 nM.
For the compound `O=C(NCC(F)(F)F)[C@H]1CCCN1c1ccnc(-c2c[nH]c3ncncc23)n1` [Compound 72], the inhibition constant Ki at JAK3 and at JAK2 was less than 500 nM each time.
Turning to `CC(C)[C@H](C(=O)NCC(F)(F)F)N(C)c1ccnc(-c2c[nH]c3ncncc23)n1` [Compound 73], the Ki on JAK3 and at JAK2 was less than 500 nM each time.
`CC(C)[C@H](C(=O)NCC(F)(F)F)N(C)c1nc(-c2c[nH]c3ncncc23)ncc1F` [Compound 74]: the Ki on JAK3 and on JAK2 was less than 500 nM in each case.
In the case of `CC(C)[C@](C)(Nc1nc(-c2c[nH]c3ncncc23)ncc1F)C(=O)NCC(F)(F)F` [Compound 75], the inhibition constant (Ki) on JAK3 is less than 500 nM; on JAK2, 500 to 5000 nM.
For the compound `O=C(CNc1ccnc(-c2c[nH]c3ncncc23)n1)NCC(F)(F)F` [Compound 76], the Ki on JAK3 and on JAK2 was less than 500 nM each time.
Turning to `CC[C@](C)(Nc1nc(-c2c[nH]c3ncncc23)ncc1F)C(=O)NCC(F)(F)F` [Compound 77], the inhibition constant Ki was less than 500 nM at JAK3 and 500 to 5000 nM at JAK2.
